Like-named read-outs stand apart in the source and are kept apart here.

We go through two compounds from patent publication US5948814A, “Genistein for the treatment of cystic fibrosis” (priority 1998, dated 1999).

The target of data set [1] is T1, ΔF508-CFTR (Homo sapiens, UniProt P13569, DEL508-508). As to the kind of experiment: Forskolin-dependent I- efflux, NIH/3T3-ΔF508 cells. On the procedure:
FIG. 1 is a graph representing the dose-responses relationship for forskolin-dependent I^- efflux. Peak rates of I^- efflux in the presence (closed symbols) or absence (open symbols) of 50 μM genistein were obtained with NIH/3T3-cystic fibrosis transmembrane conductance regulator (NIH/3T3-CFTR) (circles) and NTH/3T3-Δphenylalanine 508 (ΔF508) cells (triangles). NIH/3T3-CFTR cells are cultured at 37° C. NIH/3T3-Δ508 cells are cultured at 27° C. for 3 days prior to assay. Data are mean values±SE (n>5). Lines were fit by nonlinear least squares.
FIG. 2 is a bar graph showing the effects of stimulation of ΔF508-CFTR by forskolin and genistein. Peak rates of I^- efflux were measured with NIH/3T3-ΔF508cells that were cultured at 37° C. (open bars) or at 27° C. for 3 days prior to assay (filled bars). I^- efflux was assayed without added agonist as a control and with 1 μM forskolin (fsk), 50 μM genistein (gen), or 1 μM forskolin plus 50 μM genistein (fsk+gen). Error bars are SE for n>7.
Cell culture: NIH/3T3-CFTR, NIH/3T3-ΔF508, and NIH/3T3 mock cells (generous gifts from Dr. Richard Mulligan of Children's Hospital and Medical Center, Harvard Medical School) were grown as described [Bradbury et al., 1992] at 37° C. and 5% CO2 in Dulbecco's modified Eagle's medium-H21 supplemented with 10% new-born calf serum, 4 mM glutamine, 25 mM glucose, 100 μg/ml penicillin, 100 μg/ml streptomycin, and 50 μg/ml gentamicin. Cells were maintained in T75 flasks, passaged at 90-95% confluency, and split one to four. For measurements of I^- efflux and in vivo phosphorylation, cells were seeded onto 35-mm dishes at […]. For patch-clamp experiments, cells were grown on coverglass chips in 35-mm culture dishes. Media were replaced 24 hours after plating and thereafter every 48 hours. In all cases, media were changed on the day before I^- efflux studies, NIH/3T3-ΔF508 cells were transferred to 27° C. three days before use, and 1 day prior to study, media were supplemented with 5 mM butyrate. For patch-clamp studies, where a constant level of functional ΔF508-CFTR was not essential, NIH/3T3-ΔF508 cells were cultured at 27° C. for 2-6 days before use. Calu-3 cells were grown and maintained as described by Hunter [1995].
I^- efflux: I^- efflux was measured as described previously [Reenstra et al., 1996]. Briefly, cells were incubated for 30 minutes with 37° C. I^- efflux buffer [(in mM) 141 NaCl, 4 KCl, 1 KH2 PO4, 0.9 MgCl2, 1.7 CaCl2. 10 N-2hydroxyethylpiperazine-N'-2-ethanesulfonic acid (HEPES), 25 glucose pH 7.4] containing 5 μCi/ml carrier-free ^125 I^- (sodium salt). Extracellular ^125 I^- was removed by washing four times with efflux buffer, and the rate of loss of intracellular ^125 I^- was determined by replacing the bathing solution with 37° C. efflux buffer every 60 seconds for 12 minutes. Time-dependent rates of ^125 I^- efflux are calculated from R=ln(^125 I^-t1 /^125 I^-t2)/(t1-t2), where ^125 I^-t is the intracellular ^125 I^- at time t and t1 and t2 are successive time points. Dose-response curves were obtained from peak rates of 125I^- efflux by nonlinear least squares fitting to R=[Ro +Rmx ·([fsk]/K1/2)]/[1+([fsk]/K1/2)], where Ro and Rmx are the rates of ^125 I efflux at zero and infinite concentration of forskolin (fsk), and K1/2 is the concentration of agonist that gives a half-maximal change.
To investigate effects of genistein on CFTR activity, the rates of I^- efflux were measured from stably transfected NIH/3T3 cells expressing wt- and ΔF508-CFTR (NIH/33-CFTR and NIH/3T3-ΔF508 cells, respectively). […] To increase ΔF508-CFTR channel activity, NIH/3T3-ΔF508 cells were cultured at 27° C. for 3 days [Denning et al., 1992].

The next data set addresses wt-CFTR (Homo sapiens, UniProt P13569). The protocol: (§1) Electrophysiology: CFTR channel currents were recorded at room temperature (~22° C.) with a patch-clamp amplifier (EPC-9, Heka Electronic), filtered at 100 Hz with a built-in three-pole Bessel filter, and stored on videotapes. Data were subsequently refiltered at 25 Hz with an eight-pole Bessel filter (Frequency Device, Havervill, Mass.) and captured onto a hard disk at a sampling rate of 50 Hz. […] Patch-clamp electrodes were made from Corning 7052 glass capillaries (Warner Instrument, Hammed, Conn.). The pipette resistance was usually 3-5 M.OMEGA., and the seal resistance was >20 G.OMEGA.. The pipette solution contained (in mM) 140 N-methyl-D-glucamine chloride (NMDG-C1), 2 MgCl2, 5Ca Cl2, and 10 HEPES (pH 7.4 with NMDG). The superfusion solution contained (in mM) 150 […], 2 MgCl2, 1 EGTA, 5 glucose, and 5 HEPES (pH 7.4 with NaOH). In excised inside-out patch experiments, the bath solution contained (in mM) 130 MNDG-Cl, 10 EGTA, 10 HEPES, 20 tetraethylammonium chloride, 8 Tris, and 2 MgCl2 (pH 7.4 with NMDG). Pipette potential was held at 50 mV relative to the bath. Downward deflections represent channel opening.

Data set [2] concerns the target T1, ΔF508-CFTR. The data set can be described thus: CFTR gating in excised inside-out patches, NIH/3T3-ΔF508 cells. The protocol: FIGS. 9A and B are recordings of the effects of genistein on CFTR gating in excised inside-out patches from NIH/3T3-CFTR or NIH/3T3-ΔF508 cells. CFTR channels were activated by 10 μM forskolin +20 nM calyculin A before excision into an inside-out configuration. Presence of calyculin A helps to slow channel dephosphorylation. (A): continuous 14.5 minute recording of a patch containing wt-CFTR. Expanded traces are 22 seconds in length. ATP (500 μM) with or without 20 μM genistein was present as indicated. (B): 2 traces of 44 seconds in length of an excised inside-out patch with CFTR-ΔF508.
as §1
Channels were first activated in cell-attached patches with forskolin plus calyculin A, a membrane-permeant phosphatase inhibitor [Suganuma et al., 1991]. Patches were then excised into an inside-out configuration.

The next data set concerns topoisomerases. The settings on record: cited from earlier work.

T1 sequence (P13569 with tags, fused parts or gaps DEL508-508): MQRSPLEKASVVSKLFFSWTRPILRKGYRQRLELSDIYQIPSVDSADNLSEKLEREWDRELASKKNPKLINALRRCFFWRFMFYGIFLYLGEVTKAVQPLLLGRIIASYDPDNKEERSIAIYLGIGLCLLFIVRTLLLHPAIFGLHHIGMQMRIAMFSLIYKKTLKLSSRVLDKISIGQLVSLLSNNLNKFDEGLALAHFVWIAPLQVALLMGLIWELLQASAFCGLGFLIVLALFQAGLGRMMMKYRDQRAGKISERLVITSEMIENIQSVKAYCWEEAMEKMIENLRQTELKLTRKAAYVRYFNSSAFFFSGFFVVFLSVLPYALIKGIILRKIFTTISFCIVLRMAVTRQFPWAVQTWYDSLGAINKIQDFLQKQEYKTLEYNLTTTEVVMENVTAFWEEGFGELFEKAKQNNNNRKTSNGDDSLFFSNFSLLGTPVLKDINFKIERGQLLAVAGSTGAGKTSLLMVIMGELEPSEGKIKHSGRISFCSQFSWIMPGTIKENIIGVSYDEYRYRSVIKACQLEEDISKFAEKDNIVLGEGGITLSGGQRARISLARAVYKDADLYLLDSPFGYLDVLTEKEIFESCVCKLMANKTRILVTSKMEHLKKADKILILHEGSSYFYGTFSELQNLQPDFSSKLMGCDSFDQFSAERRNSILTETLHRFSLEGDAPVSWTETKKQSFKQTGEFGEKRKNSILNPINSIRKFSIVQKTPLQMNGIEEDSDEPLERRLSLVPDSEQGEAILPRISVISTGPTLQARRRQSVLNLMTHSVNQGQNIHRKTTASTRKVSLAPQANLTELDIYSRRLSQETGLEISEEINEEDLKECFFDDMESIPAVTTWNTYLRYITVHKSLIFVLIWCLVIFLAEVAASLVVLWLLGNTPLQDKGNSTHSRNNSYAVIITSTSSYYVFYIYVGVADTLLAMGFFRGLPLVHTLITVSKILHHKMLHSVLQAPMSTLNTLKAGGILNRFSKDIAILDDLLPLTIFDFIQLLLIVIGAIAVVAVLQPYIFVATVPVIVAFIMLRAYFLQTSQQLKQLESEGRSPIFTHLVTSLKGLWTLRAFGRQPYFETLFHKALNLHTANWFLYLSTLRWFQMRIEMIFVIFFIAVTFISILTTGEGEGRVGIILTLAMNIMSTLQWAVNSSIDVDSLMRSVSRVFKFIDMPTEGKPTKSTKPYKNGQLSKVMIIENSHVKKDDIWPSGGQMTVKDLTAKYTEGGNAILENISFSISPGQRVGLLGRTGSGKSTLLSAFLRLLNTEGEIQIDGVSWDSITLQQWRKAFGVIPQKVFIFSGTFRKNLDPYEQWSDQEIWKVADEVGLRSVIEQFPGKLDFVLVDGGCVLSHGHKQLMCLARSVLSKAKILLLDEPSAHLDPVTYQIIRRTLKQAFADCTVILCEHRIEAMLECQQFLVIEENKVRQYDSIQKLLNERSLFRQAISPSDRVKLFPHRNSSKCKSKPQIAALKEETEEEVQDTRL
wt-CFTR, sequence (P13569 whole entry, the tested form may be a part): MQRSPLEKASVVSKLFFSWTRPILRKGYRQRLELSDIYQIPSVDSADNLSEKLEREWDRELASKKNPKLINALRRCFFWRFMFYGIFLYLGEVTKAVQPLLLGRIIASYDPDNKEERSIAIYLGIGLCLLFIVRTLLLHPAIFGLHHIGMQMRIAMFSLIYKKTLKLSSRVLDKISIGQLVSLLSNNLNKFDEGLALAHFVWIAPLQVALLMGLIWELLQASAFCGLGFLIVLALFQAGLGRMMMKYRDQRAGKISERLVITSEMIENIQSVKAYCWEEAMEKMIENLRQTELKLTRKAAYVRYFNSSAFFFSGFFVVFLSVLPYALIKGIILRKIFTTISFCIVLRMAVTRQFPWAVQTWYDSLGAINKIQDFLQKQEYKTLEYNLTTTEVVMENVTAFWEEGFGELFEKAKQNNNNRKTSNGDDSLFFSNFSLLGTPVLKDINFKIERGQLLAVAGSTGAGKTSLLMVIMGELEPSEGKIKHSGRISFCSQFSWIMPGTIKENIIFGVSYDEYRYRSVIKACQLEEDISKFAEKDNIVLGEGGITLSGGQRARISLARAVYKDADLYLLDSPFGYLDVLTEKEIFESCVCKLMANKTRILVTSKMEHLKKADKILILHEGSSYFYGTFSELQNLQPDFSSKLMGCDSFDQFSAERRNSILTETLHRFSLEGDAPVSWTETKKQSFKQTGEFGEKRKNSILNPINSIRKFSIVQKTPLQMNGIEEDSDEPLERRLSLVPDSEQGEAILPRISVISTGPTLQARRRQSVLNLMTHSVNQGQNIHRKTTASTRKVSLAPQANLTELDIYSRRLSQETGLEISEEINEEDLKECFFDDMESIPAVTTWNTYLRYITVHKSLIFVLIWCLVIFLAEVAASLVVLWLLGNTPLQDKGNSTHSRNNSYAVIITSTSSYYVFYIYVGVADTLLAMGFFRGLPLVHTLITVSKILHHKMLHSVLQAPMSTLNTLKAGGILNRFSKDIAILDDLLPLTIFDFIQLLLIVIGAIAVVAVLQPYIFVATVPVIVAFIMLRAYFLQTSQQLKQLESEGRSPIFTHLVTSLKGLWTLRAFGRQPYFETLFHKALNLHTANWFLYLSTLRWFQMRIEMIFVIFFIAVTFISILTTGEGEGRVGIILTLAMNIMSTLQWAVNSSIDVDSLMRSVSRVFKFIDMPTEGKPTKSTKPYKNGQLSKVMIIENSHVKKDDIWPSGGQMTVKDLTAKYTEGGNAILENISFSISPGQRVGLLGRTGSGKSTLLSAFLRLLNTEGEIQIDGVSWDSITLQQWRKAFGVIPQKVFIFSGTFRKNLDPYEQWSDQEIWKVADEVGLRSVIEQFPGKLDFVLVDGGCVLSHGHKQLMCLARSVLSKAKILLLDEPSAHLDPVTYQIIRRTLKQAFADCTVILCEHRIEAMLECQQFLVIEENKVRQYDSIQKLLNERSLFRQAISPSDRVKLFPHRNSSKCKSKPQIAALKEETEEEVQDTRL

Take `O=c1c(-c2ccc(O)cc2)coc2cc(O)cc(O)c12` [Genistein, 4',5,7-trihydroxyisoflavone]: on ΔF508-CFTR [1] (50 μM genistein, cells cultured at 27° C. for 3 days), the “increase of the maximal forskolin-dependent I- efflux response by genistein” value is 3.7±0.4 fold. The “magnitude of potentiation by genistein after patch cramming” value on wt-CFTR (patch crammed into a different NIH/3T3-CFTR cell) is listed as “similar”. In addition, the “increase of mean current by genistein” value on wt-CFTR (wt-CFTR crammed into NIH/3T3-ΔF508 cell, 10 μM forskolin, 50 μM genistein, n=3) stood at 3.2±0.3 fold. The channel open time at ΔF508-CFTR [2] (ATP with genistein, stated for both wt- and ΔF508-CFTR) is recorded as 2,033±173 milliseconds. Besides, the “increase of ATP-dependent channel current by genistein” value at ΔF508-CFTR [2] (genistein, n=7) is on record as 2.3±0.5 fold. The inhibition of topoisomerases result with topoisomerases is on record as “inhibits”.

`C=C[C@@]1(C)CC(=O)[C@]2(O)[C@@]3(C)[C@@H](O)CCC(C)(C)[C@@H]3[C@H](O)[C@H](OC(C)=O)[C@@]2(C)O1` [forskolin]: on ΔF508-CFTR [1], the EC50 is 0.67 ± 0.26 µM and the “stimulation of mutant ΔF508-CFTR” value is reported as “had little affect on mutant ΔF508-CFTR”. The maximal fold induction on ΔF508-CFTR [1] (mouse, read-out: maximal forskolin-dependent increase in I- efflux) is 1.65 ± 0.08. For the same compound, the EC50 on ΔF508-CFTR [1] (read-out: K1/2 of forskolin for I- efflux in presence of genistein, with 50 μM genistein, cells cultured at 27° C. for 3 days) was found to be 0.016 ± 0.005 µM. The activation at 10 µM on ΔF508-CFTR [1] (read-out: increase of I- efflux) was less than 15%.
